How the values were obtained:
[1] = Sample stability of testosterone in sample pools; format: physicochemical, human; settings: testosterone in samples
From the text: A blood serum sample is collected from a human patient. The serum is first de-proteinated using a 10% formic acid solution or a 1% trichloroacetic acid solution (in methanol). The deproteination also acts to release testosterone from SHBG, albumin, and other binding proteins. In other embodiments proteins can be removed from the blood with other acids such as a solution of 1% trichloroacetic acid in methanol.
To understand the stability of testosterone in samples, two levels of sample pool were subjected to the following conditions:
Freeze/Thaw: 1, 2, 3, 4, and 5 cycles.
Refrigerated (2-8° C.): 0, 1, 2, 4, 7, and 14 days.
Duplicate runs of samples were run on two separate days.

[2] = biological target: T1, Sex hormone-binding globulin (SHBG) (Homo sapiens, UniProt P04278); settings: SHBG vs albumin; cited from earlier work
T1 sequence (P04278 30-402): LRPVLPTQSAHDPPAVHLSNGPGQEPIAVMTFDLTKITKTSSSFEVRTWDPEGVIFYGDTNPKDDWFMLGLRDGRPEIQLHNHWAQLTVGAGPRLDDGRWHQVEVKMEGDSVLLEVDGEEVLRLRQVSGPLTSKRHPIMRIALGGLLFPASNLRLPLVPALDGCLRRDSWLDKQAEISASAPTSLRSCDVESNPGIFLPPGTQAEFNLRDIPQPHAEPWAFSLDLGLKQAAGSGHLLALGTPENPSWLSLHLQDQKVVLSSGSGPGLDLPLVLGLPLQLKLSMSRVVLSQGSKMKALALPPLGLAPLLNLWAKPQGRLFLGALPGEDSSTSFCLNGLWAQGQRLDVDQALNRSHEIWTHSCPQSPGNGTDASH

plasma proteins = settings: in circulation; cited from earlier work

C[C@]12CC[C@H]3[C@@H](CCC4=CC(=O)CC[C@@]43C)[C@@H]1CC[C@@H]2O [Testosterone, 4 androsten 17β-ol-3-one]
Stability ([1]; Freeze Thaw Cycles, with no effect): Up to 5 with no effect Cycles
Stability ([1]; Refrigerated (0°-8° C.)): 7 days
Stability ([1]; Room Temp (18-25° C.)): 4 days
binding capacity of SHBG for testosterone relative to that of albumin [2]: approximately 30,000 times
testosterone circulating unbound to plasma proteins (plasma proteins): Less than 2.5%

Reference: patent US8329392B2, “Determination of testosterone by mass spectrometry” (Quest Diagnostics Investments Incorporated, priority 2003, dated 2012)
